In paper PMC11178805, “Ligand-based design of [^18F]OXD-2314 for PET imaging in non-Alzheimer’s disease tauopathies” (Nature Communications, 2024):
Values joined by “and” are separate entries in the source; they are usually repeats but may differ in a detail not shown here. Equal values may be shown once.

Legend:
[1] = Dynamic brain PET-CT with [^18F]OXD-2314 in rats; assay type: in vivo
Procedure: Eight rats were used in preclinical PET scans with [^18F]OXD-2314: two for dynamic brain imaging, and six for whole-body biodistribution of radioactivity and dose estimation. Another five rats were used for radiometabolite analysis in brain homogenates and blood plasma. Dynamic PET-CT imaging in healthy wild-type (wt) rats were performed following intravenous administration of [^18F]OXD-2314 (17.9 and 23.8 MBq, n = 2, one female and one male). Radioactivity reached an initial peak of 2.3 standardized uptake value (SUV) within two minutes in whole brain, followed by a steady washout of radioactivity in the brain to below 0.3 SUV at the end of the 120 min acquisition time (Fig. 4). Distribution of radioactivity was homogenous among brain regions, but with the female rat having slower clearance of radioactivity from the brain and thus higher overall brain radioactivity than the male rat.
A total of 8 healthy adult rats (Sprague-Dawley, 384 ± 56 g; 4/4 M/F) underwent PET imaging following bolus injection of [^18F]OXD-2314 (20.5 ± 4.1 MBq), with two animals (M/F) scanned for 120 min with the head in the centre of PET field-of-view (FOV) whereas six animals (3/3 M/F) scanned for 180 min at three bed positions (head-to-bottom) with 15 frames (2×15 s, 2×30 s, 2×60 s, 1×120 s, 1×180 s, 2×240 s, 2×300 s, and 3×600 s) to cover the whole body. PET images were acquired using a nanoScan™ PET/CT scanner (Mediso, Budapest, Hungary) with rats anesthetized under isoflurane in O2 (1.5–2%, 1 L/min) throughout the imaging session and monitored closely for body temperature and respiration rate. […] Normalized cumulated activities of each organ were calculated using trapezoidal integration of the area under the TACs plus extrapolation of the TAC to infinity with natural decay of the radiotracer. […] SUV were calculated by normalizing regional radioactivity for injected radioactivity and body weight.

[2] = target: T1, 4R-tau aggregates in CBD tissue (Homo sapiens, UniProt P10636); experiment: Competition binding vs [^3H]OXD-2115 in CBD tissue; details: vs [^3H]OXD-2115, CBD tissue, n = 1
T1 construct: tissue Neurodegenerative Disease Brain Bank at UCSF; host or cells: human CBD brain, middle frontal gyrus (pool of three) or putamen (one subject)
T1 sequence (P10636 1-441 isoform P10636-8): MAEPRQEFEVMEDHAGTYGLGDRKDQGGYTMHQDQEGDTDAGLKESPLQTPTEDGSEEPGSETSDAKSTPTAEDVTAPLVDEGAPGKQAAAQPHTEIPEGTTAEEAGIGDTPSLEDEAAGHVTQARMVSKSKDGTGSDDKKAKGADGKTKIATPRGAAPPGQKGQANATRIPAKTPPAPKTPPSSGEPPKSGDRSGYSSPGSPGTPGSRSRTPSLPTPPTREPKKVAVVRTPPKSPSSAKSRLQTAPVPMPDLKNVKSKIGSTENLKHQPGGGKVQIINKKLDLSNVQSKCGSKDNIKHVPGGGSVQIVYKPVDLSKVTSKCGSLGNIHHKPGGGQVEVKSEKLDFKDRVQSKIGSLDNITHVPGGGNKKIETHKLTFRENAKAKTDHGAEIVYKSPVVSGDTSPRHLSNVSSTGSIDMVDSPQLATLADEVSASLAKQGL
Procedure: (§1) Fresh frozen, autopsy-confirmed human PD anterior cingulate cortex brain tissue blocks (1 cm^3) were obtained from Dr. Thomas Beach at Banner/Sun Health AZ with funding from the Michael J. Fox Foundation and contained frequent α-synuclein aggregates and no other detectable aggregated amyloid species. The frozen tissue blocks were prepared for the binding assays as previously described[47],[48], except that equal quantities of the homogenates of three AD brains (AD1-AD3, Table S1) were pooled, as were homogenates from three PSP brains (PSP1-PSP3), three CBD brains (CBD1-CBD3), three Pick’s brains (PiD1-PiD3), and 4 PD brains (PD1-PD4) in order to help minimize the inter-subject variability within the different neuropathological groups. Individual subcortical brain tissues from a PSP subject (PSP4) and a CBD subject (CBD4), as well as with the middle frontal cortex of a control subject, were prepared for the binding assays as previously described[47],[48].
(§2) The equilibrium inhibition constant (Ki) values of the unlabeled compounds were determined versus tritium-labeled radioligands using published methods.

[3] = target: T2, 3R-tau aggregates in PiD tissue (Homo sapiens, UniProt P10636); experiment: Competition binding vs [^3H]OXD-2314 in PiD tissue
T2 construct: tissue Neurodegenerative Disease Brain Bank at UCSF; host or cells: human PiD brain, middle frontal gyrus, pooled homogenate of three brains
T2 sequence (P10636 1-410 isoform P10636-5): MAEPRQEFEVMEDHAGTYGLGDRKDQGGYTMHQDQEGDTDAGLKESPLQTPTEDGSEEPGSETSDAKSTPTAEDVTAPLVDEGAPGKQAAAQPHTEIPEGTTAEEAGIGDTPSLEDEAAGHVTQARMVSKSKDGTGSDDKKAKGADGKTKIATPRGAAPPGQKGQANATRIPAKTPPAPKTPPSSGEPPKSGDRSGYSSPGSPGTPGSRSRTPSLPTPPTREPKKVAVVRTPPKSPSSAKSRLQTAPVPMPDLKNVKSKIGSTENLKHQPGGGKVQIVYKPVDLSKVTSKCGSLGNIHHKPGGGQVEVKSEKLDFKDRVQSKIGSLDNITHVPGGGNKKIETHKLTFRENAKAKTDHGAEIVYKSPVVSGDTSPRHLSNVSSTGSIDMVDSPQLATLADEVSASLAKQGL
Procedure: as §1, §2

MAO-B = target: T3, MAO-B (Homo sapiens, UniProt P27338); experiment: In vitro pharmacology screen (Eurofins): MAO-B; details: read-out: inhibition of MAO-B binding
T3 construct: purchased Eurofins, France (contract screening)
T3 sequence (P27338 1-520): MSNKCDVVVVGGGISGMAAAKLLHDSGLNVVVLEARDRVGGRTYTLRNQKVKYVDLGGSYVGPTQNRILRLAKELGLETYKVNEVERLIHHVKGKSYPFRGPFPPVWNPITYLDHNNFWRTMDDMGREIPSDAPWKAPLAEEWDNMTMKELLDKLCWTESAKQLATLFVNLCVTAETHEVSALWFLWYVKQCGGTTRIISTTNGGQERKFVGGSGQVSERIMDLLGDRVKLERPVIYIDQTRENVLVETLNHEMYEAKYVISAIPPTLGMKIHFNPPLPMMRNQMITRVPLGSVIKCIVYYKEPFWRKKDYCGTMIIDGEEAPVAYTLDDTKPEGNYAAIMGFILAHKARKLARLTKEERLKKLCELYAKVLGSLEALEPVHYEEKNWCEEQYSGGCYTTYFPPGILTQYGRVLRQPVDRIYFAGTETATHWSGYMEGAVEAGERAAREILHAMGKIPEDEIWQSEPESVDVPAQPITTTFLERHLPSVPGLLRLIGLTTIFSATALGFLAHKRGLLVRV
Procedure: OXD-2314 binding to CNS receptors was calculated as a percentage of inhibition of a receptor-specific radioligand. Enzyme inhibition was calculated as the percent inhibition of baseline enzyme activity where inhibition above 50% was considered significant. […] Norepinephrine transports are expressed in low concentration throughout the brain and its relative concentration are not affected by aging or neurodegeneration. 5-lipoxygenase may be overexpressed in aging brain and play some role in neurodegeneration, which could be necessary to further investigate in vivo[42]. Off-target binding to monoamine oxidase A and B (MAO-A and MAO-B) has been seen with some tau PET radiotracers[43],[44].

[4] = target: 3R/4R-tau aggregates in AD tissue (Homo sapiens, UniProt P10636); experiment: Competition binding vs [^3H]OXD-2314 in AD tissue
3R/4R-tau aggregates in AD tissue, sequence (P10636 623-758 limits assumed): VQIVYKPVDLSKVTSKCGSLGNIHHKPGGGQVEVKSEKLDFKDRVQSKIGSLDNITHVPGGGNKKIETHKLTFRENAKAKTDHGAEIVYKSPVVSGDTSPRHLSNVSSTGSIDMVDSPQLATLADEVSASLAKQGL
Procedure: as §1, §2

| Ki [2] [nM] | Ki [3] [nM] | inhibition at 10 µM (MAO-B) [%] | Ki [4] [nM] | Structure (SMILES) | ratio initial maximum to late minimum brain radioactivity ([1]; rats) | whole brain radioactivity at end of acquisition ([1]; rats, end of the 120 min acquisition) | initial peak whole brain uptake (SUV) ([1]; wild-type rats, i.v., within two minutes, n = 2) |
| --- | --- | --- | --- | --- | --- | --- | --- |
|  |  |  |  | CO[C@H]1CCCN(c2ccc(-c3cc4cc(O)ccc4[nH]3)c([18F])n2)C1 [[^18F]OXD-2314] | ~ 8 | below 0.3 SUV | 2.3 SUV and > 2 SUV |
| 4.4 | 5.5 ± 0.5 | 37 | 4.8 ± 0.3 | COC1CCCN(c2ccc(-c3cc4cc(O)ccc4[nH]3)c(F)n2)C1 (stereo not shown) [OXD-2314, 2-(2-fluoro-6-(3-methoxypiperidin-1-yl)pyridin-3-yl)-1H-indol-5-ol] |  |  |  |
